Source: patent US20250339392A1, “THE USE OF LRRC8 PROTEIN […] PREVENT AND TREAT CARDIOVASCULAR DISEASE” (Washington University, priority 2022, published 2025)
Numbering of substitutions follows the chain as printed. Entries after “also recorded” stand apart in the source; their conditions may differ.

Tests used:
LRRC8 channel [1] = molecular target: T1, LRRC8 channel (Homo sapiens, UniProt Q8IWT6); assay: swell-activated currents recorded from HEK cells; type: cell-based
T1 construct: endogenous in cells; host or cells: HEK cells
T1 sequence (Q8IWT6 1-810): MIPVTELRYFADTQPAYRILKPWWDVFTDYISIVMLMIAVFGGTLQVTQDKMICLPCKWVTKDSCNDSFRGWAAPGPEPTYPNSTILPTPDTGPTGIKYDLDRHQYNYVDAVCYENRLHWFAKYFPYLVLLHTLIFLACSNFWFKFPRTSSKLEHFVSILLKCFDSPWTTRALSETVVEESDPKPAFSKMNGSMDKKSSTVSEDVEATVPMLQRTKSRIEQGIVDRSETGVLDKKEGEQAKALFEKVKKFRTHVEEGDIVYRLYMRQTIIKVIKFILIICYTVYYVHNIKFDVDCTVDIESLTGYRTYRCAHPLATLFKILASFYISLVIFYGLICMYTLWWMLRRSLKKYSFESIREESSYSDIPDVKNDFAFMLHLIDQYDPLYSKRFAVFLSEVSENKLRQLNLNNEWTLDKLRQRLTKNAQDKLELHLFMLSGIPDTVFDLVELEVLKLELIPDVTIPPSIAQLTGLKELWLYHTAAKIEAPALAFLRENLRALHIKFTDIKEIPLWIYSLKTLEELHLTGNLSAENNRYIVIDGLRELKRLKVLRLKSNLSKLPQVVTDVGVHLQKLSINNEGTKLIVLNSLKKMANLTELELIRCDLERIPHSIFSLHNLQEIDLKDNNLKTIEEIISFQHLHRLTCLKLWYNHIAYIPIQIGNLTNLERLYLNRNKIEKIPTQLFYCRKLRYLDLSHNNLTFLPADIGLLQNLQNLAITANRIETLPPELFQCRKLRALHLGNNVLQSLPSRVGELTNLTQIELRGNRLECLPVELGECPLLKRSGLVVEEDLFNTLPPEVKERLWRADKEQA
From the text: FIG. 25A-25D depict how congeners SN-418 and SN-418C are potent inhibitors of swell-activated currents recorded from HEK cells. FIG. 25A depicts the chemical structure of SN-418. FIG. 25B depicts the chemical structure of SN-418C. FIG. 25C depicts currents in the presence of varying concentrations of SN-418 and SN-401 normalized to the currents activated in hypotonic solution alone. […] FIG. 25D depicts currents in the presence of varying concentrations of SN-418C and SN-401 normalized to the currents activated in hypotonic solution alone.
Examples of these are SN-418 and SN-418C (FIG. 25A&25B), which include modification in the alkyl chain+/−cyclopropyl group to increase LRRC8 channel inhibition ˜10-fold over SN-401 (FIG. 25C&25D). SN-418C was then tested for antiplatelet activity in vitro.

C57BL/6 mice = assay: tail wound thrombosis / tail bleeding assay; type: in vivo, mouse
Procedure: To determine if acute inhibition of LRRC8 channel activity affected platelet function in vivo, vehicle or the known LRRC8 channel inhibitor SN-401 (DCPIB) was administered to 25 to 30-week old C57BL/6 mice by IP injection, and in vivo thrombosis was quantified using an assay for tail wound thrombosis. Specifically, 20 minutes following IP injection with vehicle or 10 mg/kg SN-401, mouse tails were amputated 5 mm from the tail tip, placed in normal saline at 37° C. for 15 minutes, and the relative blood loss during that period was quantified by estimating the hemoglobin concentration in the normal saline by measuring light absorbance at 550 nm.
FIG. 24 depicts how SN-401 treatment increases mouse tail bleeding. Mice were pretreated with Vehicle or SN401 (10 mg/kg i.p×1) and tail bleeding quantified after 15 minutes by measuring absorbance of hemoglobin at 550 nm. * p<0.05.
To determine if acute inhibition of LRRC8 channel activity affected platelet function in vivo, vehicle or the known LRRC8 channel inhibitor SN-401 (DCPIB) was administered to 25 to 30-week old C57BL6 mice by IP injection, and in vivo thrombosis was quantified using an assay for tail wound thrombosis. […]

human platelets = assay: platelet adhesion to collagen in microfluidic device, human whole blood; type: cell-based; settings: 10 μM, collagen-coated microfluidic chamber, vs vehicle (DMSO)
Procedure: Human blood from 4 donors was collected into heparin anticoagulant, pooled and incubated with the fluorescently label DiOC6 (3,39-dihexyloxacarbocyanine iodide; Invitrogen) and either 10 μM SN-401 (DCPIB) or vehicle (DMSO) for 10 minutes. The whole blood was perfused through a polydimethysiloxane (PDMS) microfluidic device plasma bonded to a glass slide patterned with bovine type 1 collagen at a constant upstream pressure for 5 minutes followed by PBS for 5 minutes. Platelet accumulation was captured using an Olympus IX83 inverted microscope and the surface area coverage of platelets quantified using ImageJ.
FIG. 23A-23B depict how SN-401 impairs human platelet adhesion under physiologic shear-flow conditions in collagen-coated microfluidic flow chambers. n=4 blood draws from 4 subjects on 2 separate days. FIG. 23A depicts the percentage of surface area covered by adherent platelets over time in human whole-blood treated with vehicle or 10 μM SN-401. p=0.1 for 2-way Anova. FIG. 23B depicts the area under the curve (AUC) calculated from FIG. 23A for vehicle and SN-401. p=0.1 for t-test.

MEG01 cells = assay: swell-activated currents in human MK cell line MEG01; type: cell-based; settings: WT MEG01 cells, hypotonic solution (HYPO, 210 mOsm), 10 μM
Procedure: FIG. 29A-29C depicts how the human MK cell line, MEG01, had robust, SN-4XX-inhibited, swell-activated currents. FIG. 29A depicts current density over time in response to swelling with hypotonic solution (HYPO, 210 mOsm), and inhibition by 10 μM SN401 in WT MEG01 cells. FIG. 29B depicts the current-voltage relationship in WT MEG01 cells in response to HYPO and inhibition by 10 μM SN401. FIG. 29C depicts the current-voltage relationship in WT MEG01 cells in response to HYPO and inhibition by 3 μM SN418c.

LRRC8 channel [2] = molecular target: T2, LRRC8 channel (Mus musculus, UniProt Q80WG5); assay: perforated patch-clamp of ICl,SWELL in freshly isolated murine megakaryocytes; type: cell-based; set-up: inhibition of ICI,SWELL currents: dose or concentration left out as unconfirmed; settings: for inhibition of swell-activated current: murine MK, hypotonic solution (HYPO, 205 mOsm), 10 μM
T2 construct: endogenous in cells; host or cells: freshly isolated murine megakaryocytes (WT = LRRC8A fl/fl littermate controls)
T2 sequence (Q80WG5 1-810): T1 sequence (Q8IWT6 1-810) with P75S, G76S, I86V, I276A, A591V, I715V, T722A, N792S
From the text: FIG. 17A depicts a murine MK perforated patch-clamp. FIG. […] FIG. 17C depicts the current-voltage relationship in WT MK. FIG. 17D depicts the current-voltage relationship in cKO MK. FIG. 17E depicts mean outward and inward currents at +100 mV and −100 mV respectively, in WT, WT+SN401, and cKO MK. * p<0.05;** p<0.01.
To validate the biology implied by the human genetic studies, megakaryocyte (MK)-specific LRRC8A conditional knockout (cKO) mice were generated by crossing our LRRC8A^fl/fl mouse (SWELL1^fl/fl)^35-31 with the platelet factor4-driven Cre recombinase mouse (Pf4-Cre) to generate LRRC8A^fl/fl;Pf4-cre+/− (cKO) and littermate control LRRC8A^fl/fl mice (WT). Complete deletion of LRRC8A protein from cKO mouse platelets was confirmed while maintaining expression of the platelet marker b3 integrin (FIG. 16). To confirm that LRRC8 proteins form functional VRAC/ICI,SWELL channels in platelets, ICI,SWELL was measured in freshly isolated murine MK using the perforated patch configuration of the patch-clamp technique (FIG. 17A). […] This hypotonically-activated, swell-activated current is entirely abolished in cKO MKs (FIG. 17C-17D), confirming the SN-401-inhibited current in murine MKs to be entirely LRRC8A mediated.

Question: Which results are given for CCCCC1(C2CCCC2)Cc2cc(OCCCC(=O)O)c(Cl)c(Cl)c2C1=O (stereo not drawn) [SN-401, 4-((2-Butyl-6,7-dichloro-2-cyclopentyl-1-oxo-2,3-dihydro-1H-inden-5-yl)oxy)butanoic acid]?
Answer: IC50 (LRRC8 channel [1]): 4 µM; mean amount of tail blood loss relative to vehicle (C57BL/6 mice; 10 mg/kg IP, 20 minutes before tail amputation, 15 minutes, absorbance at 550 nm): 4 fold; tail bleeding (C57BL/6 mice; 10 mg/kg i.p. x1, hemoglobin absorbance at 550 nm after 15 minutes): increases; adhesion of human platelets to collagen (surface area coverage) (human platelets): significantly reduced; also recorded: significantly inhibited; also recorded: impairs; inhibition of swell-activated (ICI,SWELL) current (MEG01 cells): completely inhibited; inhibition of swell-activated (ICI,SWELL) current (MEG01 cells; listed as SN401): inhibition; inhibition of ICI,SWELL currents (LRRC8 channel [2]; WT MK, hypotonic swelling): fully inhibited; inhibition of swell-activated current (LRRC8 channel [2]): robust inhibition; inhibition of swell-activated current (LRRC8 channel [2]; listed as SN401): inhibition
